The nature of data set [1]: Average % total dose in urine samples of dogs (Table II). The note with it: mean. It is filed as in vivo, dog. From the text:
The diastereomeric ^99m Tc complexes formed by reduction of pertechnetate in the presence of (2-benzoylthioacetyl)- glycyl-(S-benzoyl)-cysteine methyl ester (compound XVI) and N-2-(benzoylthio)ethyl)-N'-1-carbomethoxy-(2-benzoylthio)ethyl]oxamide (compound XXXI) were synthesized and separated by high pressure liquid chromatography. The two fractions collected from the products of synthesis in each case were denoted (XVIA), (XVIB), (XXXIA), and (XXXIB), respectively.
Samples of each fraction were mixed with appropriate amounts of ^131 I-OIH and coinjected into normal dogs placed under a gamma camera. Images were recorded at 1, 5, 10, 15, 20, 25, 30 and 35 minutes after administration. The initial image at one minute was used to collect 750,000 counts. All subsequent images were exposed for the same length of time as this first image, and the number of counts noted. Immediately after each count, a urine sample was drawn from the bladder via a indwelling catheter, and the ^99m Tc ANd ^131 I activity determined using an ionization chamber. In this way, the counts collected in the camera images cound be related to absolute activity levels (mCi or μCi). The animals were then observed until the urine samples were free of ^99m Tc.
In Table II can be seen the average % total dose valus observed in the urine samples collected at each time point. Also quoted in parentheses are the standard deviation and standard error of the mean.

Data set [2] in a line: Gamma camera: % total dose in bladder, 99mTc complexes coinjected with 131I-OIH into normal dogs (Tables I, III). In kind it is in vivo, dog. Also on record: Comparison of % total dose in bladder versus 131I-OIH, column headed by drawing 19 (± s.d.): unit not given here. The conditions noted are these: for % Total Dose In Bladder (gamma camera data): single animals; for % total dose in bladder at 35 minutes, Average 99mTc (± s.d) / Comparison of % total dose in bladder versus 131I-OIH, column headed by drawing 19 (± s.d.): Table III; for % total dose in bladder at 35 minutes, Average 99mTc (± s.d): average of dogs; for Comparison of % total dose in bladder versus 131I-OIH, column headed by drawing 19 (± s.d.): dogs; for rate of excretion in the urine: versus 131I-OIH. On the procedure: The two fractions collected from the products of synthesis in each case were denoted (XVIA), (XVIB), (XXXIA), and (XXXIB), respectively.
Images were recorded at 1, 5, 10, 15, 20, 25, 30 and 35 minutes after administration. The initial image at one minute was used to collect 750,000 counts. All subsequent images were exposed for the same length of time as this first image, and the number of counts noted. […] In this way, the counts collected in the camera images cound be related to absolute activity levels (mCi or μCi). The animals were then observed until the urine samples were free of ^99m Tc.
The values represent the calculated % total dose in the camera region of interest set over the bladder.

A short description of data set [3]: Biodistribution in Swiss Webster albino male mice, coinjected with 131I-OIH (Tables IV, V). The conditions noted are these: for Blood, % total dose per organ ± s.d. / Intestine, % total dose per organ ± s.d. / Kidneys, % total dose per organ ± s.d. / Liver, % total dose per organ ± s.d. / Stomach, % total dose per organ ± s.d. / Urine, % total dose ± s.d.: Table IV, XVI A and 131I-OIH coinjected. It is filed as in vivo, mouse. Here is the method: The diastereomers (XVIA) and (XVIB) were synthesized and then isolated by high pressure liquid chromatography as described previously, and their biodistributions obtained in groups in six Swiss Webster albino male mice. […] The mice were then placed in metabolic cages to collect urine. At 10 and 120 minutes after injection, the penis was ligated, the mice killed with chloroform vapor, and the organs disected.

[4] abbreviates: 5 min post injection, normal dogs, 5 min.
The mark [5] stands for this setting: 10 min post injection, normal dogs, 10 min.
[6] abbreviates: 15 min post injection, normal dogs, 15 min.
Setting [7] is: 20 min post injection, normal dogs, 20 min.
The mark [8] stands for this setting: 25 min post injection, normal dogs, 25 min.
The mark [9] stands for this setting: 30 min post injection, normal dogs, 30 min.
The mark [10] stands for this setting: 35 min post injection, normal dogs, 35 min.

Where “and” joins values, the source holds several entries; their conditions need not be identical. Identical values can stand only once.

Regarding `O=C(O)C1C[S][Tc-]23(=[O])[S]CC(=O)[N]2CC(=O)[N]13` (single isomer, unassigned) [XVIA], the “Average % Total Dose in Urine Samples” value came to 8.67 % total dose in data set [1] (5 min post injection, 5 min); 35.32 % total dose in data set [1] (10 min post injection, 10 min); 48.11 % total dose in data set [1] (15 min post injection, 15 min); 57.57 % total dose in data set [1] (20 min post injection, 20 min); 63.25 % total dose in data set [1] (25 min post injection, 25 min); 63.20 % total dose in data set [1] (30 min post injection, 30 min). For the same molecule, the “Average % Total Dose in Urine Samples” value in data set [1] (35 min post injection, 35 min) worked out at 67.50 % total dose. In addition, the “% Total Dose In Bladder (gamma camera data)” value in data set [2] (setting [4]) was 13.13 % total dose and 9.63 % total dose and 3.25 % total dose; in data set [2] (setting [5]) it was 38.08 % total dose and 34.15 % total dose and 33.73 % total dose; in data set [2] (setting [6]) it was 49.99 % total dose and 47.44 % total dose and 46.89 % total dose; in data set [2] (setting [7]), 57.29 % total dose and 59.01 % total dose and 56.40 % total dose; in data set [2] (setting [8]), 63.73 % total dose and 64.39 % total dose and 62.63 % total dose; in data set [2] (setting [9]) it was 63.67 % total dose and 66.95 % total dose and 58.77 % total dose. Also, the “% Total Dose In Bladder (gamma camera data)” value in data set [2] (setting [10]) is 66.64 % total dose and 72.79 % total dose and 63.08 % total dose. Besides, the “% total dose in bladder at 35 minutes, Average 99mTc (± s.d)” value (shortened to “% total dose in bladder at 35 minutes”) in data set [2] (35 min) is recorded as 67.50 % total dose. Also, the “Comparison of % total dose in bladder versus 131I-OIH, column headed by drawing 19 (± s.d.)” value (“Comparison of % total dose” for short) in data set [2] (35 min) is given as 91.71. In addition, the “pharmacokinetic behavior of the diastereomers” value in data set [2] (normal dogs) is “identical”. Also, the “rate of excretion in the urine” value in data set [2] (normal dogs) is “comparable rates of excretion to each other and to OIH”. Also, the “Blood, % total dose per organ ± s.d.” value is 2.24 ± 0.33 % total dose per organ in data set [3] (10 min) and 0.05 ± 0.01 % total dose per organ in data set [3] (120 min). The “Intestine, % total dose per organ ± s.d.” value was 1.07 ± 0.20 % total dose per organ in data set [3] (10 min) and 0.99 ± 0.59 % total dose per organ in data set [3] (120 min). The “Kidneys, % total dose per organ ± s.d.” value in data set [3] (10 min) is listed as 3.19 ± 0.41 % total dose per organ; in data set [3] (120 min) it was 0.11 ± 0.04 % total dose per organ. The “Liver, % total dose per organ ± s.d.” value in data set [3] (10 min) turned out to be 1.39 ± 0.31 % total dose per organ; in data set [3] (120 min) it was 0.19 ± 0.03 % total dose per organ. In addition, the “Stomach, % total dose per organ ± s.d.” value in data set [3] (10 min) is 0.10 ± 0.01 % total dose per organ; in data set [3] (120 min) it was 0.21 ± 0.47 % total dose per organ. The “Urine, % total dose ± s.d.” value is listed as 65.01 ± 9.7 % total dose per organ in data set [3] (10 min) and 89.87 ± 2.70 % total dose per organ in data set [3] (120 min). In addition, the “clearance into the urine” value in data set [3] (mice, versus 131I-OIH) was “cleared rapidly into the urine at comparable rates to each other and to the radiopharmaceutical ^131 I-OIH”.
For the molecule `O=C(O)C1C[S][Tc-]23(=[O])[S]CC[N]2C(=O)C(=O)[N]13` (single isomer, unassigned) [XXXIA], the “Average % Total Dose in Urine Samples” value in data set [1] (5 min post injection, 5 min) is on record as 3.56 % total dose; in data set [1] (10 min post injection, 10 min) it was 12.52 % total dose; in data set [1] (15 min post injection, 15 min), 18.25 % total dose; in data set [1] (20 min post injection, 20 min), 24.10 % total dose; in data set [1] (25 min post injection, 25 min), 28.62 % total dose; in data set [1] (30 min post injection, 30 min), 33.63 % total dose. Moreover, in data set [1] (35 min post injection, 35 min), the “Average % Total Dose in Urine Samples” value came to 35.89 % total dose. For the same molecule, the “% Total Dose In Bladder (gamma camera data)” value in data set [2] (setting [4]) was 5.76 % total dose and 4.12 % total dose and 0.81 % total dose; in data set [2] (setting [5]), 15.30 % total dose and 12.39 % total dose and 9.87 % total dose; in data set [2] (setting [6]), 22.26 % total dose and 15.99 % total dose and 16.51 % total dose; in data set [2] (setting [7]), 28.21 % total dose and 21.59 % total dose and 22.50 % total dose; in data set [2] (setting [8]), 32.68 % total dose and 25.47 % total dose and 27.72 % total dose; in data set [2] (setting [9]), 38.08 % total dose and 30.43 % total dose and 32.34 % total dose. The “% Total Dose In Bladder (gamma camera data)” value in data set [2] (setting [10]) is 41.57 % total dose and 31.19 % total dose and 34.90 % total dose. The “% total dose in bladder at 35 minutes” value in data set [2] (35 min) turned out to be 35.89 % total dose. The “Comparison of % total dose” value in data set [2] (35 min) is listed as 46.80. The “rate of excretion in the urine” value in data set [2] (normal dogs) is “a significant difference exists between (XXXIA) and (XXXIB)”.
Turning to `O=C(O)C1C[S][Tc-]23(=[O])[S]CC[N]2C(=O)C(=O)[N]13` (single isomer, unassigned) [XXXIB], the “Average % Total Dose in Urine Samples” value stood at 13.56 % total dose in data set [1] (5 min post injection, 5 min); 31.40 % total dose in data set [1] (10 min post injection, 10 min); 42.13 % total dose in data set [1] (15 min post injection, 15 min); 51.00 % total dose in data set [1] (20 min post injection, 20 min); 57.23 % total dose in data set [1] (25 min post injection, 25 min); 60.60 % total dose in data set [1] (30 min post injection, 30 min). Moreover, the “Average % Total Dose in Urine Samples” value in data set [1] (35 min post injection, 35 min) stood at 62.93 % total dose. The “% Total Dose In Bladder (gamma camera data)” value was 15.45 % total dose and 12.59 % total dose and 12.63 % total dose in data set [2] (setting [4]); 37.76 % total dose and 28.47 % total dose and 27.98 % total dose in data set [2] (setting [5]); 49.26 % total dose and 41.85 % total dose and 35.28 % total dose in data set [2] (setting [6]); 61.08 % total dose and 48.71 % total dose and 43.22 % total dose in data set [2] (setting [7]); 67.47 % total dose and 55.87 % total dose and 48.35 % total dose in data set [2] (setting [8]); 70.23 % total dose and 60.72 % total dose and 50.84 % total dose in data set [2] (setting [9]). Besides, the “% Total Dose In Bladder (gamma camera data)” value in data set [2] (setting [10]) was 69.76 % total dose and 61.09 % total dose and 57.93 % total dose. For the same molecule, the “% total dose in bladder at 35 minutes” value in data set [2] (35 min) was 62.93 % total dose. The “Comparison of % total dose” value in data set [2] (35 min) came out at 77.80. The “rate of excretion in the urine” value in data set [2] (normal dogs) is “a significant difference exists between (XXXIA) and (XXXIB)”.

The values above are taken from US4673562A, “Bisamide bisthiol compounds useful for making technetium radiodiagnostic renal agents” (The Children's Medical Center Corporation, priority 1983, dated 1987).
